The target of one assay is T1, CRF1R (Homo sapiens, UniProt P34998).
T1 sequence (P34998 24-415): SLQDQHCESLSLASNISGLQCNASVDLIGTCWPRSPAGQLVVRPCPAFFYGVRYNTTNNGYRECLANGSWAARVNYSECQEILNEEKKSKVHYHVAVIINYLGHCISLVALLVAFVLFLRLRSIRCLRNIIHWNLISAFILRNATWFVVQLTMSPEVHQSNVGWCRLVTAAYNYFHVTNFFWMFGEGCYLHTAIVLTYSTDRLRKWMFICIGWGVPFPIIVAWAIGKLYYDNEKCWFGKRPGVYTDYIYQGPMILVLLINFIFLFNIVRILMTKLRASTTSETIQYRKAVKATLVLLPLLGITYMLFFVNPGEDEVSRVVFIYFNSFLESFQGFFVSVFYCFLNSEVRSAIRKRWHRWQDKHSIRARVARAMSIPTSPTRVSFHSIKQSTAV
As to the kind of experiment: CRF1R agonist activity (EC50, Emax), called comparative CRF binding. The format is cell-based. Particulars: read-out: CRF1R EC50. The method in brief:
(§1)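 Agonism is judged from increased cAMP, measured either directly in lysates or through reporter genes under a cAMP responsive element. Cells or membranes express only the receptor of interest, and vehicle-treated cells serve as control.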

For a further assay, the target named is T2, CRF2R (Homo sapiens, UniProt Q13324).
T2 sequence (Q13324 1-411): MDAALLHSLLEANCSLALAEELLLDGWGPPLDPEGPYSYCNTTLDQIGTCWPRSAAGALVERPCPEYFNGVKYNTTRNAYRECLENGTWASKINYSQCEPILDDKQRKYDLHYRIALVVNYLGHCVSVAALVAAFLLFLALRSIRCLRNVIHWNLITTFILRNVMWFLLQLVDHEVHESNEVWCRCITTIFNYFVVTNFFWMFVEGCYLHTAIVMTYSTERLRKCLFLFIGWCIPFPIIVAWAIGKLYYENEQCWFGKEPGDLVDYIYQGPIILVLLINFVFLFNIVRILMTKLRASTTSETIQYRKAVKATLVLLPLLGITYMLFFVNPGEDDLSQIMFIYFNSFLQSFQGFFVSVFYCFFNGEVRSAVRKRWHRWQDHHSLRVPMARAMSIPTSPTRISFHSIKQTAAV
As to the kind of experiment: CRF2R agonist activity (EC50, Emax), called comparative CRF binding. The assay is classed as cell-based. Particulars: read-out: CRF2R EC50. The method in brief: as §1

Peptide text beside a SMILES is read from it.

Regarding `CC[C@H](C)[C@H](N)C(=O)N[C@H](C(=O)N[C@@H](CC(C)C)C(=O)N[C@@H](CO)C(=O)N[C@@H](CC(C)C)C(=O)N[C@@H](CC(=O)O)C(=O)N[C@H](C(=O)N1CCC[C@H]1C(=O)N[C@H](C(=O)NCC(=O)N[C@@H](CC(C)C)C(=O)N[C@@H](CC(C)C)C(=O)N[C@@H](CCC(N)=O)C(=O)N[C@H](C(=O)N[C@@H](CC(C)C)C(=O)N[C@@H](CC(C)C)C(=O)N[C@@H](CCC(=O)O)C(=O)N[C@@H](CC(C)C)C(=O)N[C@@H](C)C(=O)N[C@@H](CCCNC(=N)N)C(=O)N[C@H](C(=O)N[C@@H](CCC(N)=O)C(=O)N[C@@H](CO)C(=O)N[C@@H](CCC(N)=O)C(=O)N[C@@H](CCCNC(=N)N)C(=O)N[C@@H](CCC(=O)O)C(=O)N[C@@H](CCCNC(=N)N)C(=O)N[C@@H](C)C(=O)N[C@@H](CCC(=O)O)C(=O)N[C@@H](CCC(N)=O)C(=O)N[C@@H](CC(N)=O)C(=O)N[C@@H](CCCNC(=N)N)C(=O)N[C@H](C(=O)N[C@H](C(=O)N[C@@H](Cc1ccccc1)C(=O)N[C@@H](CC(=O)O)C(=O)N[C@@H](CO)C(=O)N[C@H](C(N)=O)C(C)C)[C@@H](C)CC)[C@@H](C)CC)[C@@H](C)O)[C@@H](C)O)[C@@H](C)CC)C(C)C)C(C)C` [compound 160] (H-IVLSLDVPIGLLQTLLELARTQSQRERAEQNRIIFDSV-NH2; N-terminus assumed), the EC50 at CRF1R was more than 100 nM; on CRF2R, 9.15 nM.

With `CC[C@H](C)[C@H](N)C(=O)N[C@H](C(=O)N[C@@H](CC(C)C)C(=O)N[C@@H](CO)C(=O)N[C@@H](CC(C)C)C(=O)N[C@@H](CC(=O)O)C(=O)N[C@H](C(=O)N1CCC[C@H]1C(=O)N[C@H](C(=O)NCC(=O)N[C@@H](CC(C)C)C(=O)N[C@@H](CC(C)C)C(=O)N[C@@H](CCC(N)=O)C(=O)N[C@H](C(=O)N[C@@H](CC(C)C)C(=O)N[C@@H](CC(C)C)C(=O)N[C@@H](CCC(=O)O)C(=O)N[C@@H](CCSC)C(=O)N[C@@H](C)C(=O)N[C@@H](CCCNC(=N)N)C(=O)N[C@@H](C)C(=O)N[C@@H](CCC(=O)O)C(=O)N[C@@H](CCC(N)=O)C(=O)N[C@@H](CC(C)C)C(=O)N[C@@H](C)C(=O)N[C@@H](CCC(N)=O)C(=O)N[C@@H](CCC(N)=O)C(=O)N[C@@H](C)C(=O)N[C@@H](Cc1c[nH]cn1)C(=O)N[C@@H](CO)C(=O)N[C@@H](CC(N)=O)C(=O)N[C@@H](CCCNC(=N)N)C(=O)N[C@@H](CCCCN)C(=O)N[C@@H](CC(C)C)C(=O)N[C@@H](CCSC)C(=O)N[C@@H](CCC(=O)O)C(=O)N[C@H](C(=O)N[C@H](C(N)=O)[C@@H](C)CC)[C@@H](C)CC)[C@@H](C)CC)[C@@H](C)CC)C(C)C)C(C)C` [compound 164] (H-IVLSLDVPIGLLQILLEMARAEQLAQQAHSNRKLMEII-NH2; N-terminus assumed), the EC50 at CRF1R was more than 100 nM; on CRF2R, 2.24 nM.

Turning to `CC[C@H](C)[C@H](N)C(=O)N[C@H](C(=O)N[C@@H](CC(C)C)C(=O)N[C@@H](CO)C(=O)N[C@@H](CC(C)C)C(=O)N[C@@H](CC(=O)O)C(=O)N[C@H](C(=O)N1CCC[C@H]1C(=O)N[C@H](C(=O)NCC(=O)N[C@@H](CC(C)C)C(=O)N[C@@H](CC(C)C)C(=O)N[C@@H](CCC(N)=O)C(=O)N[C@H](C(=O)N[C@@H](CC(C)C)C(=O)N[C@@H](CC(C)C)C(=O)N[C@@H](CCC(=O)O)C(=O)N[C@@H](CCC(N)=O)C(=O)N[C@@H](CCC(=O)O)C(=O)N[C@@H](CCCCN)C(=O)N[C@@H](CCC(N)=O)C(=O)N[C@@H](CCC(=O)O)C(=O)N[C@@H](CCCCN)C(=O)N[C@@H](CCC(=O)O)C(=O)N[C@@H](CCCCN)C(=O)N[C@@H](CCC(N)=O)C(=O)N[C@@H](CCC(N)=O)C(=O)N[C@@H](C)C(=O)N[C@H](C(=O)N[C@H](C(=O)N[C@@H](CC(N)=O)C(=O)N[C@@H](C)C(=O)N[C@@H](CCCNC(=N)N)C(=O)N[C@H](C(=O)N[C@@H](CC(C)C)C(=O)N[C@@H](C)C(=O)N[C@@H](CCCNC(=N)N)C(=O)N[C@H](C(N)=O)C(C)C)[C@@H](C)CC)[C@@H](C)O)[C@@H](C)O)[C@@H](C)CC)[C@@H](C)CC)C(C)C)C(C)C` [compound 167] (H-IVLSLDVPIGLLQILLEQEKQEKEKQQATTNARILARV-NH2; N-terminus assumed), the EC50 at CRF1R was not below 1000 nM; at CRF2R, 13 nM.

Regarding `CC[C@H](C)[C@H](NC(=O)[C@H](C)NC(=O)[C@H](CC(N)=O)NC(=O)[C@H](CCC(N)=O)NC(=O)[C@H](CCC(=O)O)NC(=O)[C@H](C)NC(=O)[C@H](CCCNC(=N)N)NC(=O)[C@H](CCC(=O)O)NC(=O)[C@H](CCCNC(=N)N)NC(=O)[C@H](CCC(N)=O)NC(=O)[C@H](CO)NC(=O)[C@H](CCC(N)=O)NC(=O)[C@@H](NC(=O)[C@H](CCCNC(=N)N)NC(=O)[C@H](C)NC(=O)[C@H](CC(C)C)NC(=O)[C@H](CCC(=O)O)NC(=O)[C@H](CC(C)C)NC(=O)[C@H](CC(C)C)NC(=O)[C@@H](NC(=O)[C@H](CCCNC(=N)N)NC(=O)[C@H](CC(C)C)NC(=O)[C@H](CC(C)C)NC(=O)[C@H](CC(C)C)NC(=O)[C@H](CC(C)C)NC(=O)[C@@H]1CCCN1C(=O)[C@H](CC(C)C)NC(=O)[C@H](CC(=O)O)NC(=O)[C@@H](NC(=O)[C@H](CO)NC(=O)[C@H](CC(C)C)NC(=O)[C@H](CO)NC(=O)[C@@H]1CCCN1C(=O)[C@H](CC(N)=O)NC(=O)[C@@H](N)CC(=O)O)[C@@H](C)CC)[C@@H](C)O)[C@@H](C)O)C(=O)N[C@H](C(=O)N[C@@H](Cc1ccccc1)C(=O)N[C@@H](C)C(=O)N[C@@H](CO)C(=O)N[C@H](C(N)=O)C(C)C)[C@@H](C)CC` [compound 174] (H-DNPSLSIDLPLLLLRTLLELARTQSQRERAEQNAIIFASV-NH2; N-terminus assumed), the EC50 at CRF1R was not below 1000 nM; on CRF2R, 4.42 nM.

As to `CC[C@H](C)[C@H](NC(=O)[C@H](C)NC(=O)[C@H](CC(N)=O)NC(=O)[C@H](CCC(N)=O)NC(=O)[C@H](CCC(=O)O)NC(=O)[C@H](C)NC(=O)[C@H](CCCNC(=N)N)NC(=O)[C@H](CCC(=O)O)NC(=O)[C@H](CCCNC(=N)N)NC(=O)[C@H](CCC(N)=O)NC(=O)[C@H](CO)NC(=O)[C@H](CCC(N)=O)NC(=O)[C@@H](NC(=O)[C@H](CCCNC(=N)N)NC(=O)[C@H](C)NC(=O)[C@H](CC(C)C)NC(=O)[C@H](CCC(=O)O)NC(=O)[C@H](CC(C)C)NC(=O)[C@H](CC(C)C)NC(=O)[C@@H](NC(=O)[C@H](CCCNC(=N)N)NC(=O)[C@H](CC(C)C)NC(=O)[C@H](CC(C)C)NC(=O)[C@H](CCC(N)=O)NC(=O)[C@H](CC(C)C)NC(=O)[C@@H]1CCCN1C(=O)[C@H](CC(C)C)NC(=O)[C@H](CC(=O)O)NC(=O)[C@@H](NC(=O)[C@H](CO)NC(=O)[C@H](CC(C)C)NC(=O)[C@H](CO)NC(=O)[C@@H]1CCCN1C(=O)[C@H](CC(N)=O)NC(=O)[C@@H](N)CC(=O)O)[C@@H](C)CC)[C@@H](C)O)[C@@H](C)O)C(=O)N[C@H](C(=O)N[C@@H](Cc1ccccc1)C(=O)N[C@@H](C)C(=O)N[C@@H](CO)C(=O)N[C@H](C(N)=O)C(C)C)[C@@H](C)CC` [compound 176] (H-DNPSLSIDLPLQLLRTLLELARTQSQRERAEQNAIIFASV-NH2; N-terminus assumed), the EC50 on CRF1R was not below 1000 nM; at CRF2R it was 12.6 nM.

Take `CC[C@H](C)[C@H](NC(=O)[C@H](C)NC(=O)[C@H](CC(N)=O)NC(=O)[C@H](CCC(N)=O)NC(=O)[C@H](CCC(=O)O)NC(=O)[C@H](C)NC(=O)[C@H](CCCNC(=N)N)NC(=O)[C@H](CCC(=O)O)NC(=O)[C@H](CCCNC(=N)N)NC(=O)[C@H](CCC(N)=O)NC(=O)[C@H](CO)NC(=O)[C@H](CCC(N)=O)NC(=O)[C@@H](NC(=O)[C@H](CCCNC(=N)N)NC(=O)[C@H](C)NC(=O)[C@H](CC(C)C)NC(=O)[C@H](CCC(=O)O)NC(=O)[C@H](CC(C)C)NC(=O)[C@H](CC(C)C)NC(=O)[C@@H](NC(=O)[C@H](CCCNC(=N)N)NC(=O)[C@H](CC(C)C)NC(=O)[C@H](CC(C)C)NC(=O)[C@H](Cc1ccc(O)cc1)NC(=O)[C@H](CC(C)C)NC(=O)[C@@H]1CCCN1C(=O)[C@H](CC(C)C)NC(=O)[C@H](CC(=O)O)NC(=O)[C@@H](NC(=O)[C@H](CO)NC(=O)[C@H](CC(C)C)NC(=O)[C@H](CO)NC(=O)[C@@H]1CCCN1C(=O)[C@H](CC(N)=O)NC(=O)[C@@H](N)CC(=O)O)[C@@H](C)CC)[C@@H](C)O)[C@@H](C)O)C(=O)N[C@H](C(=O)N[C@@H](Cc1ccccc1)C(=O)N[C@@H](C)C(=O)N[C@@H](CO)C(=O)N[C@H](C(N)=O)C(C)C)[C@@H](C)CC` [compound 177] (H-DNPSLSIDLPLYLLRTLLELARTQSQRERAEQNAIIFASV-NH2; N-terminus assumed): the EC50 at CRF1R amounted to 613 nM; at CRF2R, 5.63 nM.

What is called EC50 is the concentration needed to bring the measured effect to its halfway point.

The values above are taken from US7192924B2, “Corticotropin releasing factor 2 receptor agonists” (priority 2002, dated 2007).
